From article PMC11274883, “Anticancer Effect of Pt^[sequence], Pt^II5MESS, Pt^II56MESS and Their Platinum(IV)-Dihydroxy Derivatives against Triple-Negative Breast Cancer and Cisplatin-Resistant Colorectal Cancer” (Cancers, 2024)

Legend:
Format in all cases: cell-based
MDA−MB−231 cells [1] = assay: DCFDA cellular ROS detection assay; settings: complexes at IC50, TBHP 20 µM
In short: (§1)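 Cells seeded at 2500 cells/well overnight, then loaded with 25 µM DCFH-DA for 45 min. DCF fluorescence (ex/em 485/535 nm, RFU) read at multiple time points; 20 µM TBHP served as positive control. Three independent experiments in triplicate.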

HT29 cells [2] = assay: DCFDA cellular ROS detection assay; settings: complexes at IC50, TBHP 20 µM
In short: as §1

MDA−MB−231 cells [3] = assay: Cellular uptake of Pt by ICP-MS; settings: for Intracellular Concentration: MDA−MB−231, 3 µM; for Intracellular/extracellular ratio: MDA−MB−231, extracellular 3 µM
In short: (§2)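 HT29 and MDA-MB-231 cells (10^6/well) exposed to 3 µM Pt(II) or Pt(IV) complex for 0–30 h, washed with cold PBS, digested in 69% HNO3. Pt measured by ICP-MS with ^193Ir internal standard against external standards; given as nmol/10^6 cells or µM/cell, mean ±SEM of three experiments in triplicate.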

HT29 cells [4] = assay: Cellular uptake of Pt by ICP-MS; settings: for Intracellular Concentration: HT29, 3 µM; for Intracellular/extracellular ratio: HT29, extracellular 3 µM
In short: as §2

MCF10A = assay: WST-1 cytotoxicity, 72 h; settings: mean ± SEM
In short: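 Cells seeded at 1000 per well, with WST-1 added after 72 h and absorbance read at 450 nm 1 h later. Apparent IC50 from a nonlinear fit of % survival versus log concentration; three separate experiments, each n = 3.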

Cc1c(C)c2cccnc2c2ncccc12.N[C@H]1CCCC[C@@H]1N.O=[N+]([O-])[O-].O=[N+]([O-])[O-].[Pt+2] [Pt^II56MESS, [Pt(5,6-dimethyl-1,10-phenanthroline)(1S,2S-diaminocyclohexane)](NO3)2]
ROS production (MDA−MB−231 cells [1]; MDA−MB−231, 24 h): 338.49 RFU | ROS production (MDA−MB−231 cells [1]; MDA−MB−231, 48 h): 418.08 RFU | ROS production (MDA−MB−231 cells [1]; MDA−MB−231, 72 h): 446.09 RFU | ROS production (HT29 cells [2]; HT29, 24 h): 321.56 RFU | ROS production (HT29 cells [2]; HT29, 48 h): 433.67 RFU | ROS production (HT29 cells [2]; HT29, 72 h): 453.89 RFU | Intracellular Concentration (MDA−MB−231 cells [3]; 0 h): 0.68 nmol/10^6 cells | Intracellular Concentration (MDA−MB−231 cells [3]; 0.5 h): 0.58 nmol/10^6 cells | Intracellular Concentration (MDA−MB−231 cells [3]; 1 h): 0.78 nmol/10^6 cells | Intracellular Concentration (MDA−MB−231 cells [3]; 3 h): 1.24 nmol/10^6 cells | Intracellular Concentration (MDA−MB−231 cells [3]; 6 h): 1.88 nmol/10^6 cells | Intracellular Concentration (MDA−MB−231 cells [3]; 12 h): 4.80 nmol/10^6 cells | Intracellular Concentration (MDA−MB−231 cells [3]; 24 h): 5.38 nmol/10^6 cells | Intracellular Concentration (MDA−MB−231 cells [3]; 30 h): 11.24 nmol/10^6 cells | intracellular/extracellular ratio relative to the maximum ratio of cisplatin (MDA−MB−231 cells [3]; MDA−MB−231, 30 h): 8.7 fold | Intracellular/extracellular ratio (MDA−MB−231 cells [3]; 0 h): 107.16 | Intracellular/extracellular ratio (MDA−MB−231 cells [3]; 0.5 h): 92.36 | Intracellular/extracellular ratio (MDA−MB−231 cells [3]; 1 h): 122.42 | Intracellular/extracellular ratio (MDA−MB−231 cells [3]; 3 h): 195.59 | Intracellular/extracellular ratio (MDA−MB−231 cells [3]; 6 h): 296.93 | Intracellular/extracellular ratio (MDA−MB−231 cells [3]; 12 h): 754.52 | Intracellular/extracellular ratio (MDA−MB−231 cells [3]; 24 h): 845.27 | Intracellular/extracellular ratio (MDA−MB−231 cells [3]; 30 h): 1765.95 ± 526.75 | Intracellular/extracellular ratio (MDA−MB−231 cells [3]; 30 h, listed as 56MESS): around 1766 | Intracellular/extracellular ratio (MDA−MB−231 cells [3]; 30 h, listed as PtII56MESS): 1765.95 | drug's concentration per cell (MDA−MB−231 cells [3]; per MDA−MB−231 cell, cell volume 1.7 pL, starting concentration 3 µM): about 5298 µM | Intracellular Concentration (HT29 cells [4]; 0 h): 0.45 nmol/10^6 cells | Intracellular Concentration (HT29 cells [4]; 0.5 h): 0.87 nmol/10^6 cells | Intracellular Concentration (HT29 cells [4]; 1 h): 1.38 nmol/10^6 cells | Intracellular Concentration (HT29 cells [4]; 3 h): 2.23 nmol/10^6 cells | Intracellular Concentration (HT29 cells [4]; 6 h): 5.05 nmol/10^6 cells | Intracellular Concentration (HT29 cells [4]; 12 h): 17.67 nmol/10^6 cells | Intracellular Concentration (HT29 cells [4]; 24 h): 23.28 nmol/10^6 cells | Intracellular Concentration (HT29 cells [4]; 30 h): 24.85 nmol/10^6 cells | intracellular/extracellular ratio relative to the maximum ratio of cisplatin (HT29 cells [4]; HT29, 30 h): 34.8 fold | Intracellular/extracellular ratio (HT29 cells [4]; 0 h): 70.93 | Intracellular/extracellular ratio (HT29 cells [4]; 0.5 h): 136.74 | Intracellular/extracellular ratio (HT29 cells [4]; 1 h): 216.82 | Intracellular/extracellular ratio (HT29 cells [4]; 3 h): 350.73 | Intracellular/extracellular ratio (HT29 cells [4]; 6 h): 793.80 | Intracellular/extracellular ratio (HT29 cells [4]; 12 h): 2776.28 | Intracellular/extracellular ratio (HT29 cells [4]; 24 h): 3657.59 | Intracellular/extracellular ratio (HT29 cells [4]; 30 h, listed as 56MESS): ~3904 | Intracellular/extracellular ratio (HT29 cells [4]; 30 h, listed as PtII56MESS): 3903.51 | drug's concentration per cell (HT29 cells [4]; per HT29 cell, cell volume 1.7 pL, starting concentration 3 µM): ~11,711 µM | IC50 (MCF10A): 410 nM
